# Data from article PMC9817970 (Cancers, 2022).
# Experiments:
# Experiment in all cases: Kinase panel profiling
# Assay type in all cases: biochemical
# Settings in all cases: 10 μM ATP
# ABL2/ARG = target: T1, ABL2/ARG (Homo sapiens, UniProt P42684)
# T1 construct: purchased Reaction Biology Corp
# Method: (§1) Kinase panel profiling was conducted by Reaction Biology Corp. (San Diego, CA, USA). A single dose (1.0 μM) of 6r was tested against 371 recombinant human kinases in the presence of 10 μM ATP.
# ALK = target: T2, ALK (Homo sapiens, UniProt Q9UM73)
# T2 construct: purchased Reaction Biology Corp
# Method: as §1
# CDK18/cyclin Y (PCTK3) = target: T3, CDK18/cyclin Y (PCTK3) (Homo sapiens, UniProt Q07002)
# T3 construct: purchased Reaction Biology Corp
# Method: as §1
# CDK2/CYCLIN A = target: T4, CDK2/CYCLIN A (Homo sapiens, UniProt P24941)
# T4 construct: purchased Reaction Biology Corp
# Method: as §1
# CDK2/CYCLIN E = target: T5, CDK2/CYCLIN E (Homo sapiens, UniProt P24941)
# T5 construct: purchased Reaction Biology Corp
# Method: as §1
# CDK6/cyclin D1 = target: T6, CDK6/cyclin D1 (Homo sapiens, UniProt Q00534)
# T6 construct: purchased Reaction Biology Corp
# T6 sequence (Q00534 whole entry): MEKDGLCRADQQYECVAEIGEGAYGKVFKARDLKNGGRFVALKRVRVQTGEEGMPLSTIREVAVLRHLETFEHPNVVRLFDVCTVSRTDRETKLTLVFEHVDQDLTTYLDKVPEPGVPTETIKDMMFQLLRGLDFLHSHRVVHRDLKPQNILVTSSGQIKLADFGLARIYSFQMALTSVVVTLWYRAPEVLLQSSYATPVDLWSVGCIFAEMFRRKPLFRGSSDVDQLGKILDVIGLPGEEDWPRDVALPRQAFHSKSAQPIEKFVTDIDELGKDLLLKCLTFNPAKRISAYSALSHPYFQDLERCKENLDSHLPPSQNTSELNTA
# T6 sequence (P24385 whole entry partner): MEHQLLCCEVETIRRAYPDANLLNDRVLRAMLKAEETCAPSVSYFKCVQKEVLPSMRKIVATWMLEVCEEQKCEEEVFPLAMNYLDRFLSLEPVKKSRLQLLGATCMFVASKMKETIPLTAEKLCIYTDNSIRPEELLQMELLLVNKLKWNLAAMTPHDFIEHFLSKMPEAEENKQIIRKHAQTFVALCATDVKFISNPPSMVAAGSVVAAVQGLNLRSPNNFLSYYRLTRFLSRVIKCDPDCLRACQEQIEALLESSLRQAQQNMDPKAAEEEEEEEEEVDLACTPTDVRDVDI
# Method: as §1
# CDK9/CYCLIN K = target: T7, CDK9/CYCLIN K (Homo sapiens, UniProt P50750)
# T7 construct: purchased Reaction Biology Corp
# Method: as §1
# CK1d = target: T8, CK1d (Homo sapiens, UniProt P48730)
# T8 construct: purchased Reaction Biology Corp
# Method: as §1
# CLK2 = target: T9, CLK2 (Homo sapiens, UniProt P49760)
# T9 construct: purchased Reaction Biology Corp
# Method: as §1
# DDR1 = target: T10, DDR1 (Homo sapiens, UniProt Q08345)
# T10 construct: purchased Reaction Biology Corp
# Method: as §1
# DYRK1B = target: T11, DYRK1B (Homo sapiens, UniProt Q9Y463)
# T11 construct: purchased Reaction Biology Corp
# Method: as §1
# DYRK2 = target: T12, DYRK2 (Homo sapiens, UniProt Q92630)
# T12 construct: purchased Reaction Biology Corp
# Method: as §1
# EPHB3 = target: T13, EPHB3 (Homo sapiens, UniProt P54753)
# T13 construct: purchased Reaction Biology Corp
# Method: as §1
# GRK2 = target: T14, GRK2 (Homo sapiens, UniProt P25098)
# T14 construct: purchased Reaction Biology Corp
# Method: as §1
# GRK4 = target: T15, GRK4 (Homo sapiens, UniProt P32298)
# T15 construct: purchased Reaction Biology Corp
# Method: as §1
# Haspin = target: T16, Haspin (Homo sapiens, UniProt Q8TF76)
# T16 construct: purchased Reaction Biology Corp
# Method: as §1
# ITK = target: T17, ITK (Homo sapiens, UniProt Q08881)
# T17 construct: purchased Reaction Biology Corp
# Method: as §1
# LCK2/ICK = target: T18, LCK2/ICK (Homo sapiens, UniProt Q9UPZ9)
# T18 construct: purchased Reaction Biology Corp
# Method: as §1
# LKB1 = target: T19, LKB1 (Homo sapiens, UniProt Q15831)
# T19 construct: purchased Reaction Biology Corp
# T19 sequence (Q15831 whole entry): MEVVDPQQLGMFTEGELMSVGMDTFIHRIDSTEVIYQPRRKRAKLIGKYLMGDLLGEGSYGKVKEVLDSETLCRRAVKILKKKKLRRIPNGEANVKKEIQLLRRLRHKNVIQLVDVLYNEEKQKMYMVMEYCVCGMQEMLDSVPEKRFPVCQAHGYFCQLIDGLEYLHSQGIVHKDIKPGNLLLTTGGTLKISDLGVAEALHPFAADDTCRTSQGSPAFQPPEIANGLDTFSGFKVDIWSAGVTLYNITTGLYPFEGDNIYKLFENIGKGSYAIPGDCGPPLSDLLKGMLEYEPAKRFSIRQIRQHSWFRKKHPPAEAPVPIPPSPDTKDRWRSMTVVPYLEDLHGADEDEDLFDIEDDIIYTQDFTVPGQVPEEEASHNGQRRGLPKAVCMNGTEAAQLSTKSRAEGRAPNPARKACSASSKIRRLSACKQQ
# T19 sequence (Q7RTN6 whole entry partner): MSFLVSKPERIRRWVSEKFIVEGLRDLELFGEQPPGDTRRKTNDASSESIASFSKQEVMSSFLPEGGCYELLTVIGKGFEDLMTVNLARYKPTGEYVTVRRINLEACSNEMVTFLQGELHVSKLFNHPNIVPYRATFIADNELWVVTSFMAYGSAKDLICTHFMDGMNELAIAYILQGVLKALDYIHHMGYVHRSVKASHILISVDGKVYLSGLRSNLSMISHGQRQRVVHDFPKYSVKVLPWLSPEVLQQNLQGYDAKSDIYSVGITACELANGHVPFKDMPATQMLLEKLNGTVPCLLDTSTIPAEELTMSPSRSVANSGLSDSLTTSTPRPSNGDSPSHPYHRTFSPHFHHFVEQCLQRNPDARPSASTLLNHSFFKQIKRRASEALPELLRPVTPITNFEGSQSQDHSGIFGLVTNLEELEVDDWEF
# T19 sequence (Q9Y376 whole entry partner): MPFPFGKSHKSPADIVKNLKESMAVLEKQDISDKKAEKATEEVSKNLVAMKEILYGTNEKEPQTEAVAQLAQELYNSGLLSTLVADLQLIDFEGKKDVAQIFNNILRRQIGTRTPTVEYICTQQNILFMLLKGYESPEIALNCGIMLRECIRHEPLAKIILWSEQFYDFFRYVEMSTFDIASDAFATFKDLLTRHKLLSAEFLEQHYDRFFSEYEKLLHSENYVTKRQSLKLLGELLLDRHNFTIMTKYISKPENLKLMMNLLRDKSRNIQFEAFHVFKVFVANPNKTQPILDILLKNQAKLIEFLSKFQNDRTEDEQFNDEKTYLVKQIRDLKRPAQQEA
# Method: as §1
# MAPKAPK3 = target: T20, MAPKAPK3 (Homo sapiens, UniProt Q16644)
# T20 construct: purchased Reaction Biology Corp
# T20 sequence (Q16644 whole entry): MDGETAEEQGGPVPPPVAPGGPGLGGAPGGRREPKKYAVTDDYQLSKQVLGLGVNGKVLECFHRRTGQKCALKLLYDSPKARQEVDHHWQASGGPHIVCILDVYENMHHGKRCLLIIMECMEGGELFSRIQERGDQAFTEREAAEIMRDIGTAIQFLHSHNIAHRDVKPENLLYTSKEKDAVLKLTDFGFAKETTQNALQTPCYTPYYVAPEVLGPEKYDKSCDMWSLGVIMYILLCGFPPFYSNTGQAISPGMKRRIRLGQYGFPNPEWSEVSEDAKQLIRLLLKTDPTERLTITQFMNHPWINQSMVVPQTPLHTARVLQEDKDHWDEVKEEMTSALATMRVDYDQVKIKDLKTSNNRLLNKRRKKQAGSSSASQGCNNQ
# Method: as §1
# MARK1 = target: T21, MARK1 (Homo sapiens, UniProt Q9P0L2)
# T21 construct: purchased Reaction Biology Corp
# Method: as §1
# MARK4 = target: T22, MARK4 (Homo sapiens, UniProt Q96L34)
# T22 construct: purchased Reaction Biology Corp
# Method: as §1
# MINK/MINK1 = target: T23, MINK/MINK1 (Homo sapiens, UniProt Q8N4C8)
# T23 construct: purchased Reaction Biology Corp
# Method: as §1
# MLK3/MAP3K11 = target: T24, MLK3/MAP3K11 (Homo sapiens, UniProt Q16584)
# T24 construct: purchased Reaction Biology Corp
# Method: as §1
# MST2/STK3 = target: T25, MST2/STK3 (Homo sapiens, UniProt Q13188)
# T25 construct: purchased Reaction Biology Corp
# Method: as §1
# NEK2 = target: T26, NEK2 (Homo sapiens, UniProt P51955)
# T26 construct: purchased Reaction Biology Corp
# T26 sequence (P51955 whole entry): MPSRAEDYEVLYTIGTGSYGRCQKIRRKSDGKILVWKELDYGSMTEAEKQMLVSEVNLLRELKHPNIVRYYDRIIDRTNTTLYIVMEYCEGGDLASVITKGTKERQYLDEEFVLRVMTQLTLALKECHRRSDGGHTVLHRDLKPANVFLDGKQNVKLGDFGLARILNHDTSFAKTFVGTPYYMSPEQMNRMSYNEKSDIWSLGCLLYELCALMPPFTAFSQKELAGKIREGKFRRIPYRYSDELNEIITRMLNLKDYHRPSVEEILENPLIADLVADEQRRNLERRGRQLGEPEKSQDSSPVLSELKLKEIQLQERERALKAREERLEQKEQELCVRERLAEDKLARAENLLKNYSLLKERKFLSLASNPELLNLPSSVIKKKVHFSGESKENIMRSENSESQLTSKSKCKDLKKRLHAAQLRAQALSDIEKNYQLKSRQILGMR
# Method: as §1
# NEK4 = target: T27, NEK4 (Homo sapiens, UniProt P51957)
# T27 construct: purchased Reaction Biology Corp
# T27 sequence (P51957 whole entry): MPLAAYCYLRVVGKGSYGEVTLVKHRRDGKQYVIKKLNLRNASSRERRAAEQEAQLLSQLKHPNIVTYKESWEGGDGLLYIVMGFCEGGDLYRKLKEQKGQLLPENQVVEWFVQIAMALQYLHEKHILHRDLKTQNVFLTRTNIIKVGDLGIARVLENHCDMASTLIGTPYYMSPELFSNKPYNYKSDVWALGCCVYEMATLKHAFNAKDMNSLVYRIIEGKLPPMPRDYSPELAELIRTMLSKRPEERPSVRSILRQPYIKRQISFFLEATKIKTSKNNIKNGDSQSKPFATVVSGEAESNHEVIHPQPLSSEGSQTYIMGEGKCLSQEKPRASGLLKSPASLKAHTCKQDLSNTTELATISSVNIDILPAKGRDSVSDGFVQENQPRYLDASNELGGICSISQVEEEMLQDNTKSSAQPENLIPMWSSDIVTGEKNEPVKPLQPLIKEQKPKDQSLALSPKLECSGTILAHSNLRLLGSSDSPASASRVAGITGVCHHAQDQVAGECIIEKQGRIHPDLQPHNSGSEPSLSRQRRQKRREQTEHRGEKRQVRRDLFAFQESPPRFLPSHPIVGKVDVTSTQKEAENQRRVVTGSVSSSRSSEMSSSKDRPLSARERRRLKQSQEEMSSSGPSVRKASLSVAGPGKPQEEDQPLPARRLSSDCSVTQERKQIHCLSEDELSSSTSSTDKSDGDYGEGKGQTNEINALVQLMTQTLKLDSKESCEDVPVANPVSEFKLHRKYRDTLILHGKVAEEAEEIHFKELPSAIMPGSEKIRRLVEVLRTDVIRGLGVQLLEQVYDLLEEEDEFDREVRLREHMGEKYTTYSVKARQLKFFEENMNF
# Method: as §1
# NEK6 = target: T28, NEK6 (Homo sapiens, UniProt Q9HC98)
# T28 construct: purchased Reaction Biology Corp
# Method: as §1
# P38d/MAPK13 = target: T29, P38d/MAPK13 (Homo sapiens, UniProt O15264)
# T29 construct: purchased Reaction Biology Corp
# Method: as §1
# PKCd = target: T30, PKCd (Homo sapiens, UniProt Q05655)
# T30 construct: purchased Reaction Biology Corp
# Method: as §1
# PKCiota = target: T31, PKCiota (Homo sapiens, UniProt P41743)
# T31 construct: purchased Reaction Biology Corp
# Method: as §1
# PKCtheta = target: T32, PKCtheta (Homo sapiens, UniProt Q04759)
# T32 construct: purchased Reaction Biology Corp
# Method: as §1
# PLK3 = target: T33, PLK3 (Homo sapiens, UniProt Q9H4B4)
# T33 construct: purchased Reaction Biology Corp
# Method: as §1
# RIPK2 = target: T34, RIPK2 (Homo sapiens, UniProt O43353)
# T34 construct: purchased Reaction Biology Corp
# T34 sequence (O43353 whole entry): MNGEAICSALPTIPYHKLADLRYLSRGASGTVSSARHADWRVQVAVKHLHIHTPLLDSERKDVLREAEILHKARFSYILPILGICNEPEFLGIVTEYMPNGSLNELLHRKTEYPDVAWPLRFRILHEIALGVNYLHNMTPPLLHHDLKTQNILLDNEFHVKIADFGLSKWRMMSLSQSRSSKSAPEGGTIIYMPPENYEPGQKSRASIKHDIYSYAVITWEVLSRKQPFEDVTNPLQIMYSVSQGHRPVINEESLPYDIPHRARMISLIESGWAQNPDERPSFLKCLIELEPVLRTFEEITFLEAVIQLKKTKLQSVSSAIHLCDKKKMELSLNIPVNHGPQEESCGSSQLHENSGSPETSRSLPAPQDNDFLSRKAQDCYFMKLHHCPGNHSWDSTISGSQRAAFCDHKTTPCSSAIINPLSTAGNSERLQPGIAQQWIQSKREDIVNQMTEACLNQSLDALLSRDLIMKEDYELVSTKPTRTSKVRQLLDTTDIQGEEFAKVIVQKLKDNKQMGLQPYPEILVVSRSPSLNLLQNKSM
# Method: as §1
# RON/MST1R = target: T35, RON/MST1R (Homo sapiens, UniProt Q04912)
# T35 construct: purchased Reaction Biology Corp
# Method: as §1
# SIK1 = target: T36, SIK1 (Homo sapiens, UniProt P57059)
# T36 construct: purchased Reaction Biology Corp
# Method: as §1
# SIK2 = target: T37, SIK2 (Homo sapiens, UniProt Q9H0K1)
# T37 construct: purchased Reaction Biology Corp
# T37 sequence (Q9H0K1 whole entry): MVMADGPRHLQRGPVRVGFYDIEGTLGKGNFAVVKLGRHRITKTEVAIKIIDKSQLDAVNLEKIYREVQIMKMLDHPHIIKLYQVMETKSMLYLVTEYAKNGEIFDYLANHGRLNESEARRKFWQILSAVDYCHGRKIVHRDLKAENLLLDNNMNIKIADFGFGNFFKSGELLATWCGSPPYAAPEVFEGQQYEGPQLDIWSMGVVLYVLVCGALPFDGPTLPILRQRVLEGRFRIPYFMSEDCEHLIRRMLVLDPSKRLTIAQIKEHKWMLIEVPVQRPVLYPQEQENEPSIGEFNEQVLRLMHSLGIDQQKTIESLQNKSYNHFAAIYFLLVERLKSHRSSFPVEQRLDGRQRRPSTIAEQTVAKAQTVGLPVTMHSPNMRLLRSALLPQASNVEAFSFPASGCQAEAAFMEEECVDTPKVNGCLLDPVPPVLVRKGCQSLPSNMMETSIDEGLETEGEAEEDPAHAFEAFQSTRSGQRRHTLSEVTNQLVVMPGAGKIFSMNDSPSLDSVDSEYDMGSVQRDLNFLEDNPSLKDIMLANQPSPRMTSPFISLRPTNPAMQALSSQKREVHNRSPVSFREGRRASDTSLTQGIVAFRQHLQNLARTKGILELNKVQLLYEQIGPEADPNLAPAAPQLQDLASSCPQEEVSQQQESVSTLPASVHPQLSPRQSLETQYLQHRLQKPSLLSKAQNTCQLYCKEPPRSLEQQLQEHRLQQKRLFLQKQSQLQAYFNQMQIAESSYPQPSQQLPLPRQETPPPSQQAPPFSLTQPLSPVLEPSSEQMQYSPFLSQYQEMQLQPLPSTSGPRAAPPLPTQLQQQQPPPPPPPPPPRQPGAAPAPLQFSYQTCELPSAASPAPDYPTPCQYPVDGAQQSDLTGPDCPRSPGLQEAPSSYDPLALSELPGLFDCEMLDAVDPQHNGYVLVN
# Method: as §1
# STK25/YSK1 = target: T38, STK25/YSK1 (Homo sapiens, UniProt O00506)
# T38 construct: purchased Reaction Biology Corp
# Method: as §1
# TEC = target: T39, TEC (Homo sapiens, UniProt P42680)
# T39 construct: purchased Reaction Biology Corp
# Method: as §1
# TGFBR2 = target: T40, TGFBR2 (Homo sapiens, UniProt P37173)
# T40 construct: purchased Reaction Biology Corp
# Method: as §1
# VRK1 = target: T41, VRK1 (Homo sapiens, UniProt Q99986)
# T41 construct: purchased Reaction Biology Corp
# Method: as §1
# WNK3 = target: T42, WNK3 (Homo sapiens, UniProt Q9BYP7)
# T42 construct: purchased Reaction Biology Corp
# Method: as §1
compound,measurement,setting,value
Cc1ccc(NC(=O)c2ccc(CN3CCN(C)CC3)c(C(F)(F)F)c2)cc1-c1cnc2sc(N)nc2c1 [6r],inhibition at 1 µM,ABL2/ARG,87.2%
same,inhibition at 1 µM,ALK,0%
same,inhibition at 1 µM,CDK18/cyclin Y (PCTK3),5.1%
same,inhibition at 1 µM,CDK2/CYCLIN A,0%
same,inhibition at 1 µM,CDK2/CYCLIN E,0%
same,inhibition at 1 µM,CDK6/cyclin D1,9.1%
same,inhibition at 1 µM,CDK9/CYCLIN K,0%
same,inhibition at 1 µM,CK1d,27.3%
same,inhibition at 1 µM,CLK2,38.7%
same,inhibition at 1 µM,DDR1,99.9%
same,inhibition at 1 µM,DYRK1B,26.2%
same,inhibition at 1 µM,DYRK2,0.6%
same,inhibition at 1 µM,EPHB3,42.5%
same,inhibition at 1 µM,GRK2,0%
same,inhibition at 1 µM,GRK4,0%
same,inhibition at 1 µM,Haspin,12.1%
same,inhibition at 1 µM,ITK,3.8%
same,inhibition at 1 µM,LCK2/ICK,60.8%
same,inhibition at 1 µM,LKB1,0%
same,inhibition at 1 µM,MAPKAPK3,10.7%
same,inhibition at 1 µM,MARK1,0%
same,inhibition at 1 µM,MARK4,2%
same,inhibition at 1 µM,MINK/MINK1,0%
same,inhibition at 1 µM,MLK3/MAP3K11,23.7%
same,inhibition at 1 µM,MST2/STK3,0%
same,inhibition at 1 µM,NEK2,0%
same,inhibition at 1 µM,NEK4,25.6%
same,inhibition at 1 µM,NEK6,1%
same,inhibition at 1 µM,P38d/MAPK13,0%
same,inhibition at 1 µM,PKCd,10.1%
same,inhibition at 1 µM,PKCiota,8.6%
same,inhibition at 1 µM,PKCtheta,6.9%
same,inhibition at 1 µM,PLK3,4.8%
same,inhibition at 1 µM,RIPK2,20.6%
same,inhibition at 1 µM,RON/MST1R,4.5%
same,inhibition at 1 µM,SIK1,1.1%
same,inhibition at 1 µM,SIK2,5.6%
same,inhibition at 1 µM,STK25/YSK1,9.3%
same,inhibition at 1 µM,TEC,1.6%
same,inhibition at 1 µM,TGFBR2,0%
same,inhibition at 1 µM,VRK1,1.6%
same,inhibition at 1 µM,WNK3,7.1%
